For this test, the system named is P388 leukemia ip, CD2F1 mice, survival T/C. Briefly: NCI In Vivo Anticancer Drug Screen. Data for tumor model P388 Leukemia (intraperitoneal) in CD2F1 (CDF1) mice. The conditions noted are these: endpoint: median survival time, higher = longer survival. The essentials:
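Mice carrying the transplanted tumor received test compound or vehicle. Survival was recorded in each group, and the value is the treated-group measurement divided by that of the vehicle-treated control group.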

The mark [1] stands for this setting: dose: 25.0 mg/kg/injection, schedule: Q01DX009 (ip), vehicle: saline with Tween-80.
The mark [2] stands for this setting: dose: 50.0 mg/kg/injection, schedule: Q01DX009 (ip), vehicle: saline with Tween-80.
Where [3] appears, read: dose: 100.0 mg/kg/injection, schedule: Q01DX009 (ip), vehicle: saline with Tween-80.
Setting [4] is: dose: 200.0 mg/kg/injection, schedule: Q01DX009 (ip), vehicle: saline with Tween-80.
Where [5] appears, read: dose: 25.0 mg/kg/injection, schedule: Q01DX009 (ip), vehicle: saline.
[6] abbreviates: dose: 50.0 mg/kg/injection, schedule: Q01DX009 (ip), vehicle: saline.
[7] abbreviates: dose: 100.0 mg/kg/injection, schedule: Q01DX009 (ip), vehicle: saline.
Where [8] appears, read: dose: 200.0 mg/kg/injection, schedule: Q01DX009 (ip), vehicle: saline.
[9] abbreviates: dose: 50.0 mg/kg/injection, schedule: Q01DX005 (ip), vehicle: saline with Tween-80.
[10] abbreviates: dose: 100.0 mg/kg/injection, schedule: Q01DX005 (ip), vehicle: saline with Tween-80.
The mark [11] stands for this setting: dose: 200.0 mg/kg/injection, schedule: Q01DX005 (ip), vehicle: saline with Tween-80.
The mark [12] stands for this setting: dose: 25.0 mg/kg/injection, schedule: Q04DX003 (ip), vehicle: saline with Tween-80.
Setting [13] is: dose: 50.0 mg/kg/injection, schedule: Q04DX003 (ip), vehicle: saline with Tween-80.
[14] abbreviates: dose: 100.0 mg/kg/injection, schedule: Q04DX003 (ip), vehicle: saline with Tween-80.
The mark [15] stands for this setting: dose: 60.0 mg/kg/injection, schedule: Q01DX005 (ip), vehicle: saline with Tween-80.
Where [16] appears, read: dose: 120.0 mg/kg/injection, schedule: Q01DX005 (ip), vehicle: saline with Tween-80.
Where [17] appears, read: dose: 240.0 mg/kg/injection, schedule: Q01DX005 (ip), vehicle: saline with Tween-80.
Where [18] appears, read: dose: 12.5 mg/kg/injection, schedule: Q01DX009 (ip), vehicle: saline.
[19] abbreviates: dose: 100.0 mg/kg/injection, schedule: Q04DX003 (ip), vehicle: saline.
[20] abbreviates: dose: 200.0 mg/kg/injection, schedule: Q04DX003 (ip), vehicle: saline.
The mark [21] stands for this setting: dose: 400.0 mg/kg/injection, schedule: Q04DX003 (ip), vehicle: saline.

The structures appear in SMILES notation. Where “and” joins values, the source holds several entries; their conditions need not be identical. Identical values can stand only once. Inconclusive results and toxic doses are left out.

T/C data for 30 compounds are collected here from PubChem BioAssay AID330 (DTP/NCI, 2004).

On to `CC(C)(C)OC(=O)NC(Cc1c[nH]c2ccccc12)C(=O)ON1C(=O)CCC1=O` (stereo not drawn), for which the T/C runs as follows: under setting [1], 97 % of control; under setting [2], 108 % of control; under setting [3], 110 % of control; under setting [4], 105 % of control.

Turning to `CCN(CC)CCCNc1cc(OC)c(Nc2ccccc2)c2cccnc12`, the T/C is 112 % of control (dose: 3.12 mg/kg/injection, schedule: Q01DX005 (ip), vehicle: suspension in saline); 100 % of control (dose: 6.25 mg/kg/injection, schedule: Q01DX005 (ip), vehicle: suspension in saline); 99 % of control (dose: 12.5 mg/kg/injection, schedule: Q01DX005 (ip), vehicle: suspension in saline).

`CC1=C/C(=C(\c2cc(C)c(O)c(C(=O)O)c2)c2c(Cl)ccc(S(=O)(=O)O)c2Cl)C=C(C(=O)O)C1=O`: the T/C was 102 % of control under setting [5]; 102 % of control and 91 % of control under setting [6]; 108 % of control and 95 % of control under setting [7]; 98 % of control and 106 % of control under setting [8].

Turning to `C/C(=N\NC(=S)N1CCC(c2ccccc2)CC1)c1ncccn1`, the T/C (dose: 12.5 mg/kg/injection, schedule: Q01DX005 (ip), vehicle: saline with Tween-80) was 110 % of control and the T/C under setting [9] is 169 % of control.

With `CCOC(=O)CCN(C(C)=O)C(CC(C)C)C(=O)OCC` (stereo not drawn), the T/C was 98 % of control under setting [9], 105 % of control under setting [10] and 105 % of control under setting [11].

On to `CCOS(=O)(=O)CC(C)C(C)C` (stereo not drawn), for which the T/C is, setting by setting: under setting [9], 98 % of control; under setting [10], 104 % of control; under setting [11], 101 % of control.

On to `Clc1ccc(CSSCc2ccc(Cl)cc2)cc1`, for which the T/C was 100 % of control (dose: 12.5 mg/kg/injection, schedule: Q04DX003 (ip), vehicle: saline with Tween-80); 100 % of control under setting [12]; 100 % of control under setting [13]; 107 % of control under setting [14].

Take `CCOCCOC(=O)Nc1c(Cl)cccc1Cl`: the T/C runs as follows: under setting [15], 101 % of control; under setting [16], 96 % of control; under setting [17], 95 % of control.

Take `O=C(O)Cn1nnc2ccccc21`: the T/C was 101 % of control under setting [7] and 96 % of control under setting [8].

Consider `CN(C)CC(C)(CN(C)C)C(=O)/C=C/c1c(Cl)cccc1Cl`, for which the T/C runs as follows: under setting [15], 115 % of control; under setting [16], 120 % of control.

Take `CCNCCC1(C)Oc2ccccc2O1`: where the note is “dose: 100.0 mg/kg/injection, schedule: Q01DX001 (ip), vehicle: saline”, the T/C was 97 % of control.

Turning to `CC1COS(=O)O1` (stereo not drawn), the T/C was 109 % of control (dose: 20.0 mg/kg/injection, schedule: Q01DX009 (ip), vehicle: saline sonified) and 109 % of control (dose: 40.0 mg/kg/injection, schedule: Q01DX009 (ip), vehicle: saline sonified).

On to `CCOC(=O)c1cnc2cc(C(F)(F)F)ccc2c1Nc1ccc2c(c1)OCO2`, for which the T/C is, setting by setting: (dose: 60.0 mg/kg/injection, schedule: Q01DX005 (ip), vehicle: Klucel (hydroxypropylcellulose) (HPC)) 100 % of control; (dose: 120.0 mg/kg/injection, schedule: Q01DX005 (ip), vehicle: Klucel (hydroxypropylcellulose) (HPC)) 102 % of control; (dose: 240.0 mg/kg/injection, schedule: Q01DX005 (ip), vehicle: Klucel (hydroxypropylcellulose) (HPC)) 98 % of control.

Take `O=C(/C=C/c1ccccc1O)/C=C/c1ccccc1O`: the T/C runs as follows: (dose: 8.0 mg/kg/injection, schedule: Q01DX009 (ip), vehicle: saline with Tween-80) 118 % of control; (dose: 12.0 mg/kg/injection, schedule: Q01DX009 (ip), vehicle: saline with Tween-80) 118 % of control; (dose: 18.0 mg/kg/injection, schedule: Q01DX009 (ip), vehicle: saline with Tween-80) 113 % of control; under setting [1], 115 % of control.

Take `CCCCCCCCCCCCSCCSCCC`: the T/C runs as follows: under setting [6], 90 % of control; under setting [7], 100 % of control; under setting [8], 90 % of control.

Turning to `COc1cc2c(cc1OC)CC[N+](Cc1ccc([N+](=O)[O-])cc1)=C2`, the T/C reads like this: (dose: 12.5 mg/kg/injection, schedule: Q01DX001 (ip), vehicle: saline + alcohol) 98 % of control; (dose: 25.0 mg/kg/injection, schedule: Q01DX001 (ip), vehicle: saline + alcohol) 95 % of control; (dose: 50.0 mg/kg/injection, schedule: Q01DX001 (ip), vehicle: saline + alcohol) 95 % of control.

For the compound `C=CC[n+]1ccc(-c2cc[n+](CC=C)cc2)cc1`, the T/C runs as follows: (dose: 6.25 mg/kg/injection, schedule: Q01DX009 (ip), vehicle: saline) 115 % of control; under setting [18], 112 % of control and 117 % of control.

As to `CCOC(=O)C1SC(=S)N(c2ccccc2)C1N` (stereo not drawn), the T/C was 98 % of control under setting [18]; 104 % of control under setting [5]; 105 % of control and 86 % of control under setting [6].

As for `NC(=S)NC1OC(COC(=O)c2ccccc2)C(OC(=O)c2ccccc2)C1OC(=O)c1ccccc1` (stereo not drawn), the T/C reads like this: under setting [12], 98 % of control; under setting [13], 107 % of control; under setting [14], 100 % of control; (dose: 200.0 mg/kg/injection, schedule: Q04DX003 (ip), vehicle: saline with Tween-80) 106 % of control.

As to `Cc1ccc(S(=O)(=O)N/N=C/c2cccc([N+](=O)[O-])c2O)cc1`, the T/C is 101 % of control under setting [9], 104 % of control under setting [10] and 93 % of control under setting [11].

As to `C[C@]12CCCC[C@@H]1CC[C@@H]1[C@@H]2CC[C@]2(C)[C@@H](N(CCO)CCCO)CC[C@@H]12`, the T/C (dose: 12.5 mg/kg/injection, schedule: Q01DX009 (ip), vehicle: Klucel (hydroxypropylcellulose) (HPC)) is 93 % of control; the T/C (dose: 25.0 mg/kg/injection, schedule: Q01DX009 (ip), vehicle: Klucel (hydroxypropylcellulose) (HPC)) is 99 % of control; the T/C (dose: 50.0 mg/kg/injection, schedule: Q01DX009 (ip), vehicle: Klucel (hydroxypropylcellulose) (HPC)) is 88 % of control.

Turning to `Cc1[nH]c2c(ccc3ccccc32)c(=O)c1N=Nc1ccc(C(=N)N)cc1`, the T/C reads like this: (dose: 50.0 mg/kg/injection, schedule: Q01DX005 (ip), vehicle: Klucel + Tween-80) 124 % of control; (dose: 200.0 mg/kg/injection, schedule: Q01DX005 (ip), vehicle: Klucel + Tween-80) 154 % of control; (dose: 400.0 mg/kg/injection, schedule: Q01DX005 (ip), vehicle: Klucel + Tween-80) 168 % of control.

On to `CC(=O)N1c2ccccc2Oc2ccc3ccccc3c21`, for which the T/C by setting is: under setting [9], 104 % of control; under setting [10], 100 % of control; under setting [11], 97 % of control.

For the compound `O=C(O)C1CCCCC1c1c2ccc(=O)c(O)c-2oc2c(O)c(O)ccc12` (stereo not drawn), the T/C by setting is: (dose: 15.0 mg/kg/injection, schedule: Q01DX005 (ip), vehicle: saline with Tween-80) 102 % of control; (dose: 30.0 mg/kg/injection, schedule: Q01DX005 (ip), vehicle: saline with Tween-80) 102 % of control and 105 % of control; under setting [15], 110 % of control and 111 % of control and 119 % of control; under setting [16], 107 % of control and 111 % of control and 112 % of control; under setting [17], 121 % of control.

`CC1(C)c2ccccc2-c2nc3ccccc3cc2C1(Br)Br`: the T/C under setting [9] was 105 % of control, the T/C under setting [10] was 110 % of control and the T/C under setting [11] was 120 % of control.

In the case of `OCCCN(CCCO)CCN(CCCO)CCCO`, the T/C was 97 % of control under setting [19], 97 % of control under setting [20] and 87 % of control under setting [21].

Consider `O=C(O)c1cc(C(=O)C(=O)c2cc(C(=O)O)c(O)c3ccccc23)c2ccccc2c1O`, for which the T/C under setting [2] was 95 % of control, the T/C under setting [3] is 95 % of control and the T/C under setting [4] was 101 % of control.

As for `C[N+]12CCN(CC1)CC2`, the T/C is 104 % of control under setting [19], 95 % of control under setting [20] and 100 % of control under setting [21].

Turning to `CCN(CC)Cc1c(C)nc2cc(N(C)C)ccc2c1Cl`, the T/C under setting [15] was 103 % of control.

Take `CC1(C)OC2OC(COC(=O)c3ccccc3)C(OS(C)(=O)=O)C2O1` (stereo not drawn): the T/C is, setting by setting: under setting [9], 103 % of control; under setting [10], 100 % of control; under setting [11], 102 % of control.
